Each compound was assayed on HIV-IIIb (assay: Test A: Antiviral Assay in MT4 Cells). Conditions: Human immunodeficiency virus 1, IIIB, MT4, 120 h, Table 1; MT-4 cells infected with HIV-IIIb, 5 days of incubation, CellTiter-Glo; read-out: EC50.
Format: cell-based
Experimental: The antiviral properties of a compound of the invention may be determined using Test A described below.
Test A: Antiviral Assay in MT4 Cells
For the antiviral assay utilizing MT-4 cells, 0.4 μL of […] test concentration of 3-fold serially diluted compound in DMSO was added to 40 μL of cell growth medium (RPMI 1640, 10% FBS, 1% penicilline/Streptomycine, 1% L-Glutamine, 1% HEPES) in each well of 384-well assay plates (10 concentrations) in quadruplicate.
One mL aliquots of 2×10e6 MT-4 cells were pre-infected for 1 and 3 hours respectively, @ 37° C. with 25 uL (MT4) or of either cell growth medium (mock-infected) or a fresh 1:250 dilution of an HIV-IIIb concentrated ABI stock (0.004m.o.i. for MT4 cells). Infected and uninfected cells were diluted in cell growth medium and 35 uL of 2000 (for MT4) cells was added to each well of the assay plates.
Assay plates were then incubated in a 37° C. incubator. After 5 days of incubation, […] of 2× concentrated CellTiter-Glo™ Reagent (catalog #G7573, Promega Biosciences, Inc., Madison, Wis.) was added to each well of the assay plate. Cell lysis was carried out by incubating at room temperature for 2-3 min and then chemiluminescence was read using the Envision reader (PerkinElmer). […]

Row | SMILES | EC50
1 | CCC(C)(C)O[C@H](C(=O)O)c1c(C)cc2nc(N3CCC3)sc2c1-c1ccc2c3c(ccnc13)CCO2 (atropisomer, axis not shown) [Compound 89, (S)-2-((S)-2-(azetidin-1-yl)-7-(2,3-dihydropyrano[4,3,2-de]quinolin-7-yl)-5-methylbenzo[d]thiazol-6-yl)-2-(tert-pentyloxy)acetic acid] | 36.6 nM
2 | Cc1cc2nc(-c3cccc(-c4ccc5c(cnn5C)c4)c3)sc2c(-c2cc(F)c3c(c2C)C(=O)CCO3)c1[C@H](OC(C)(C)C)C(=O)O (atropisomer, axis not shown) [Compound 167] | 39 nM
3 | Cc1cc2nc(-c3cccc(-c4ccc5c(cnn5C)c4)c3)sc2c(-c2cc(F)c3c(c2C)CCCO3)c1[C@H](OC(C)(C)C)C(=O)O (atropisomer, axis not shown) [Compound 168] | 42 nM
4 | COc1cncc(-c2cc(-c3nc4cc(C)c([C@H](OC(C)(C)C)C(=O)O)c(-c5ccc(Cl)cc5)c4s3)ccn2)c1 [Compound 105, (S)-2-tert-butoxy-2-(7-(4-chlorophenyl)-2-(5′-methoxy-2,3′-bipyridin-4-yl)-5-methylbenzo[d]thiazol-6-yl)acetic acid] | 16 nM
5 | Cc1cc2nc(-c3cccc(-c4cncnc4)c3)sc2c(-c2ccc(Cl)cc2)c1[C@H](OC(C)(C)C)C(=O)O [Compound 106, (S)-2-tert-butoxy-2-(7-(4-chlorophenyl)-5-methyl-2-(3-(pyrimidin-5-yl)phenyl)benzo[d]thiazol-6-yl)acetic acid] | 103 nM
6 | Cc1cc2nc(-c3ccnc(-c4ccc5cnn(C)c5c4)c3)sc2c(-c2ccc(Cl)cc2)c1[C@H](OC(C)(C)C)C(=O)O [Compound 108, (S)-2-tert-butoxy-2-(7-(4-chlorophenyl)-5-methyl-2-(2-(1-methyl-1H-indazol-6-yl)pyridin-4-yl)benzo[d]thiazol-6-yl)acetic acid] | 33 nM
7 | Cc1cc2nc(-c3ccnc(-c4ccc5c(cnn5C)c4)n3)sc2c(-c2ccc(Cl)cc2)c1[C@H](OC(C)(C)C)C(=O)O [Compound 110, (S)-2-tert-butoxy-2-(7-(4-chlorophenyl)-5-methyl-2-(2-(1-methyl-1H-indazol-5-yl)pyrimidin-4-yl)benzo[d]thiazol-6-yl)acetic acid] | 14 nM
8 | Cc1cc2nc(-c3cnc4cnn(C)c4c3)sc2c(-c2ccc(Cl)cc2)c1[C@H](OC(C)(C)C)C(=O)O [Compound 111, (S)-2-tert-butoxy-2-(7-(4-chlorophenyl)-5-methyl-2-(1-methyl-1H-pyrazolo[4,3-b]pyridin-6-yl)benzo[d]thiazol-6-yl)acetic acid] | 8 nM
9 | Cc1cc2nc(-c3cnc4[nH]cc(C)c4c3)sc2c(-c2ccc(Cl)cc2)c1[C@H](OC(C)(C)C)C(=O)O [Compound 112] | 28 nM
10 | Cc1cc2nc(-c3ccc4c(cnn4C)c3)sc2c(-c2ccc(Cl)cc2)c1[C@H](OC(C)(C)C)C(=O)O [Compound 113b, (S)-2-tert-butoxy-2-(7-(4-chlorophenyl)-5-methyl-2-(1-methyl-1H-indazol-5-yl)benzo[d]thiazol-6-yl)acetic acid] | 18 nM
11 | Cc1cc2nc(-c3cncc(-c4ccc5c(cnn5C)c4)c3)sc2c(-c2ccc(Cl)cc2)c1[C@H](OC(C)(C)C)C(=O)O [Compound 114, (S)-2-tert-butoxy-2-(7-(4-chlorophenyl)-5-methyl-2-(5-(1-methyl-1H-indazol-5-yl)pyridin-3-yl)benzo[d]thiazol-6-yl)acetic acid] | 13 nM
12 | Cc1cc2nc(-c3ccnc(-c4ccc5[nH]ncc5c4)c3)sc2c(-c2ccc(Cl)cc2)c1[C@H](OC(C)(C)C)C(=O)O [Compound 115, (S)-2-(2-(2-(1H-indazol-5-yl)pyridin-4-yl)-7-(4-chlorophenyl)-5-methylbenzo[d]thiazol-6-yl)-2-tert-butoxyacetic acid] | 13 nM
13 | Cc1cc2nc(-c3cnc4c(cnn4C)c3)sc2c(-c2ccc(Cl)cc2)c1[C@H](OC(C)(C)C)C(=O)O [Compound 116, (S)-2-tert-butoxy-2-(7-(4-chlorophenyl)-5-methyl-2-(1-methyl-1H-pyrazolo[3,4-b]pyridin-5-yl)benzo[d]thiazol-6-yl)acetic acid] | 19 nM
14 | Cc1cc2nc(-n3cccc(-c4ccc5c(cnn5C)c4)c3=O)sc2c(-c2ccc(Cl)cc2)c1[C@H](OC(C)(C)C)C(=O)O [Compound 117, (S)-2-tert-butoxy-2-(7-(4-chlorophenyl)-5-methyl-2-(3-(1-methyl-1H-indazol-5-yl)-2-oxopyridin-1(2H)-yl)benzo[d]thiazol-6-yl)acetic acid] | 14 nM
15 | Cc1cc2nc(-n3cc(-c4ccc5c(cnn5C)c4)ccc3=O)sc2c(-c2ccc(Cl)cc2)c1[C@H](OC(C)(C)C)C(=O)O [Compound 118, (S)-2-tert-butoxy-2-(7-(4-chlorophenyl)-5-methyl-2-(5-(1-methyl-1H-indazol-5-yl)-2-oxopyridin-1(2H)-yl)benzo[d]thiazol-6-yl)acetic acid] | 101 nM
16 | Cc1cc2nc(-c3cccc(-c4ccc5c(cnn5C)c4)c3)sc2c(-c2ccc3c(c2)OC(C)O3)c1[C@H](OC(C)(C)C)C(=O)O (stereo partly drawn) [Compound 119, (2S)-2-tert-butoxy-2-(5-methyl-2-(3-(1-methyl-1H-indazol-5-yl)phenyl)-7-(2-methylbenzo[d][1,3]dioxol-5-yl)benzo[d]thiazol-6-yl)acetic acid] | 237 nM
17 | Cc1cc2nc(-c3cccc(-c4cnn(C)c4C)c3)sc2c(-c2ccc(Cl)cc2)c1[C@H](OC(C)(C)C)C(=O)O [Compound 120, (S)-2-tert-butoxy-2-(7-(4-chlorophenyl)-2-(3-(1,5-dimethyl-1H-pyrazol-4-yl)phenyl)-5-methylbenzo[d]thiazol-6-yl)acetic acid] | 23 nM
18 | Cc1cc2nc(-c3cnc4c(c3)c(C)cn4C)sc2c(-c2ccc(Cl)cc2)c1[C@H](OC(C)(C)C)C(=O)O [Compound 121, (S)-2-tert-butoxy-2-(7-(4-chlorophenyl)-2-(1,3-dimethyl-1H-pyrrolo[2,3-b]pyridin-5-yl)-5-methylbenzo[d]thiazol-6-yl)acetic acid] | 27 nM
19 | Cc1cc2nc(-c3ccnc(-c4cccc(-c5nnn[nH]5)c4)c3)sc2c(-c2ccc(Cl)cc2)c1[C@H](OC(C)(C)C)C(=O)O [Compound 122, (S)-2-(2-(2-(3-(1H-tetrazol-5-yl)phenyl)pyridin-4-yl)-7-(4-chlorophenyl)-5-methylbenzo[d]thiazol-6-yl)-2-tert-butoxyacetic acid] | 5520 nM
20 | Cc1cc2nc(N3CCCN(c4ccc5c(cnn5C)c4)C3=O)sc2c(-c2ccc(Cl)cc2)c1[C@H](OC(C)(C)C)C(=O)O [Compound 123, (S)-2-tert-butoxy-2-(7-(4-chlorophenyl)-5-methyl-2-(3-(1-methyl-1H-indazol-5-yl)-2-oxotetrahydropyrimidin-1(2H)-yl)benzo[d]thiazol-6-yl)acetic acid] | 18 nM
21 | Cc1cc2nc(N3CCN(c4ccc5c(cnn5C)c4)C3=O)sc2c(-c2ccc(Cl)cc2)c1[C@H](OC(C)(C)C)C(=O)O [Compound 124, (S)-2-tert-butoxy-2-(7-(4-chlorophenyl)-5-methyl-2-(3-(1-methyl-1H-indazol-5-yl)-2-oxoimidazolidin-1-yl)benzo[d]thiazol-6-yl)acetic acid] | 21 nM
22 | Cc1cc2nc(N3CC(c4ccc5c(cnn5C)c4)CC3=O)sc2c(-c2ccc(Cl)cc2)c1[C@H](OC(C)(C)C)C(=O)O (stereo partly drawn) [Compound 125, (2S)-2-tert-butoxy-2-(7-(4-chlorophenyl)-5-methyl-2-(4-(1-methyl-1H-indazol-5-yl)-2-oxopyrrolidin-1-yl)benzo[d]thiazol-6-yl)acetic acid] | 205 nM
23 | Cc1cc2nc(N3CCC(c4ccccc4)C3)sc2c(-c2ccc(Cl)cc2)c1[C@H](OC(C)(C)C)C(=O)O (stereo partly drawn) [Compound 126] | 722 nM
24 | Cc1cc2nc(-c3ccnc(-c4cnc5cnn(C)c5c4)c3)sc2c(-c2ccc(Cl)cc2)c1[C@H](OC(C)(C)C)C(=O)O [Compound 129] | 48 nM
25 | Cc1cc2nc(-c3cc(-c4ccc5c(cnn5C)c4)ncn3)sc2c(-c2ccc(Cl)cc2)c1[C@H](OC(C)(C)C)C(=O)O [Compound 130] | 100 nM
26 | Cc1cc2nc(-c3cncc(-c4ccc5c(cnn5C)c4)n3)sc2c(-c2ccc(Cl)cc2)c1[C@H](OC(C)(C)C)C(=O)O [Compound 131] | 8 nM
27 | Cc1cc2nc(-c3cnc4cn(C)nc4c3)sc2c(-c2ccc(Cl)cc2)c1[C@H](OC(C)(C)C)C(=O)O [Compound 132] | 12 nM
28 | Cc1cc2nc(-c3ccc4c(c3)c(N)nn4C)sc2c(-c2ccc(Cl)cc2)c1[C@H](OC(C)(C)C)C(=O)O [Compound 133] | 18 nM

Same assay, conditions: Human immunodeficiency virus 1, IIIB, MT4, 120 h, Table 2; MT-4 cells infected with HIV-IIIb, 5 days of incubation, CellTiter-Glo; read-out: EC50

Row | SMILES | EC50
29 | Cc1cc2nc(-c3ccnc(N4CCN(C(C)C)CC4C)n3)sc2c(-c2ccc(Cl)cc2)c1[C@H](OC(C)(C)C)C(=O)O (stereo in doubt) [Compound 467, (S)-2-tert-butoxy-2-(7-(4-chlorophenyl)-2-(2-((R)-4-isopropyl-2-methylpiperazin-1-yl)pyrimidin-4-yl)-5-methylbenzo[d]thiazol-6-yl)acetic acid] | 5 nM

Same assay, conditions: Table 1; MT-4 cells infected with HIV-IIIb, 5 days of incubation, CellTiter-Glo; read-out: EC50

Row | EC50 | SMILES
30 | 483 nM | Cc1cc2nc(-c3cccc(-c4ccc5c(cnn5C)c4)c3)sc2c(-c2ccc3c4c(ccnc24)CCO3)c1[C@H](OC(C)(C)C)C(=O)O (atropisomer, axis not shown) [Compound 164]

Source: patent US8987250B2 (Gilead Sciences, Inc., priority 2012, dated 2015)
